This test relates to Tunicamycin induced ISR (ATF4) in wild-type HEK293 cells. Nature of the test: HEK-ATF4 High Content Imaging assay (ATF4 signal ratio between nucleus and cytoplasm). The settings on record: prevention of Tunicamycin induced ISR, 6 hrs incubation, read-out: Activity (IC50, HEK-ATF4 readout). It counts as cell-based. The protocol:
II Biological Assay HEK-ATF4 High Content Imaging Assay
Example compounds were tested in the HEK-ATF4 High Content Imaging assay to assess their pharmacological potency to prevent Tunicamycin induced ISR. Wild-type HEK293 cells were plated in 384-well imaging assay plates at a density of 12,000 cells per well in growth medium (containing DMEM/F12, 10% FBS, 2 mM L-Glutamine, 100 U/mL Penicillin-100 μg/mL Streptomycin) and incubated at 37° C., 5% CO2. 24-hrs later, the medium was changed to 50 μl assay medium per well (DMEM/F12, 0.3% FBS, 2 mM L-Glutamine, 100 U/mL Penicillin-100 μg/mL Streptomycin). Example compounds were serially diluted in dimethyl sulfoxide (DMSO), spotted into intermediate plates and prediluted with assay medium containing 3.3 μM Tunicamycin to give an 11-fold excess of final assay concentration. In addition to the example compound testing area, the plates also contained multiples of control wells for assay normalization purposes, wells containing Tunicamycin but no example compounds (High control), as well as wells containing neither example compound nor Tunicamycin (Low control). The assay was started by transferring 5 μl from the intermediate plate into the assay plates, followed by incubation for 6 hrs at 37° C., 5% CO2. Subsequently, cells were fixed (4% PFA in PBS, 20 min at room temperature) and submitted to indirect ATF4 immunofluorescence staining (primary antibody rabbit anti ATF4, clone D4B8, Cell Signaling Technologies; secondary antibody Alexa Fluor 488 goat anti-rabbit IgG (H+L), Thermofisher Scientific). Nuclei were stained using Hoechst dye (Thermofisher Scientific), and plates were imaged on an Opera Phenix High Content imaging platform equipped with 405 nm and 488 nm excitation. Finally, images were analyzed using script based algorithms. The main readout HEK-ATF4 monitored the ATF4 signal ratio between nucleus and cytoplasm. Tunicamycin induced an increase in the overall ATF4 ratio signal, which was prevented by ISR modulating example compounds. In addition, HEK-CellCount readout was derived from counting the number of stained nuclei corresponding to healthy cells. This readout served as an internal toxicity control.

Read-outs that look alike come from different tables or passages of the source.

Regarding `O=C(COc1ccc(Cl)c(F)c1)NC1CCN(c2nnc(N3CC(OC(F)(F)F)C3)o2)CC1` [Example 10, 2-(4-chloro-3-fluorophenoxy)-N-(1-{5-[3-(trifluoromethoxy)azetidin-1-yl]-1,3,4-oxadiazol-2-yl}piperidin-4-yl)acetamide], for the setting “Homo sapiens, HEK293, 6 h”, the IC50 was 1 to 500 nM.

As to `O=C(COc1ccc(Cl)c(F)c1)N[C@@H]1CCN(c2nnc(-c3ccc(Cl)cc3)o2)C[C@H]1O` (stereo in doubt) [Example 11, 2-(4-Chloro-3-fluorophenoxy)-N-[(3R,4R)-1-[5-(4-chlorophenyl)-1,3,4-oxadiazol-2-yl]-3-hydroxypiperidin-4-yl]acetamide], the IC50 lay in the range of 500 to 2000 nM.

Take `O=C(COc1cnc(Cl)c(F)c1)NC1CCN(c2nnc(-c3ccc(Cl)cc3)o2)CC1` [Example 2, 2-[(6-chloro-5-fluoropyridin-3-yl)oxy]-N-{1-[5-(4-chlorophenyl)-1,3,4-oxadiazol-2-yl]piperidin-4-yl}acetamide]: for the setting “Homo sapiens, HEK293, 6 h”, the IC50 lay within 1 to 500 nM.

Turning to `O=C(COc1ccc(Cl)c(F)c1)NC1CCN(c2nnc(OCCOC(F)(F)F)o2)CC1` [Example 9, 2-(4-chloro-3-fluorophenoxy)-N-(1-{5-[2-(trifluoromethoxy)ethoxy]-1,3,4-oxadiazol-2-yl}piperidin-4-yl)acetamide], where the note is “Homo sapiens, HEK293, 6 h”, the IC50 was in the range of 1 to 500 nM.

For the compound `O=C(COc1ccc(Cl)c(F)c1)N[C@H]1CCN(c2nnc(-c3ccc(Cl)cc3)o2)C[C@@H]1O` (stereo in doubt) [Example 12, 2-(4-Chloro-3-fluorophenoxy)-N-[(3S,4S)-1-[5-(4-chlorophenyl)-1,3,4-oxadiazol-2-yl]-3-hydroxypiperidin-4-yl]acetamide], the IC50 (Homo sapiens, HEK293, 6 h) lay within 1 to 500 nM.

Turning to `O=C(COc1ccc(Cl)c(F)c1)NC1CCN(c2nnc(CCCC(F)(F)F)o2)CC1` [Example 5, 2-(4-Chloro-3-fluorophenoxy)-N-{1-[5-(4,4,4-trifluorobutyl)-1,3,4-oxadiazol-2-yl]piperidin-4-yl}acetamide], the IC50 (Homo sapiens, HEK293, 6 h) is 500 to 2000 nM.

Take `O=C(COc1ccc(Cl)c(F)c1)N[C@@H]1CCCN(c2nnc(-c3ccc(Cl)cc3)o2)CC1` [Example 14, 2-(4-chloro-3-fluorophenoxy)-N-[(4R)-1-[5-(4-chlorophenyl)-1,3,4-oxadiazol-2-yl]azepan-4-yl]acetamide]: the IC50 (Homo sapiens, HEK293, 6 h) is 2000 to 15000 nM.

`O=C(COc1ccc(Cl)c(F)c1)NC1CCN(c2nnc(-c3ccc(Cl)cn3)o2)CC1` [Example 1, 2-(4-chloro-3-fluorophenoxy)-N-{1-[5-(5-chloropyridin-2-yl)-1,3,4-oxadiazol-2-yl]piperidin-4-yl}acetamide]: the IC50 (Homo sapiens, HEK293, 6 h) lay within 1 to 500 nM.

With `O=C(COc1ccc(Cl)c(F)c1)NC1CCCN(c2nnc(-c3ccc(Cl)cc3)o2)CC1` (centres unmarked) [Example 6, 2-(4-chloro-3-fluorophenoxy)-N-{1-[5-(4-chlorophenyl)-1,3,4-oxadiazol-2-yl]azepan-4-yl}acetamide], the IC50 (Homo sapiens, HEK293, 6 h) was 500 to 2000 nM.

Take `O=C(COc1ccc(Cl)c(F)c1)NN1CCN(c2nnc(-c3ccc(Cl)cc3)o2)CC1` [Example 8, 2-(4-Chloro-3-fluorophenoxy)-N-{4-[5-(4-chlorophenyl)-1,3,4-oxadiazol-2-yl]piperazin-1-yl}acetamide]: where the note is “Homo sapiens, HEK293, 6 h”, the IC50 was 1 to 500 nM.

Consider `O=C(COc1ccc(Cl)c(F)c1)N[C@H]1CCCN(c2nnc(-c3ccc(Cl)cc3)o2)CC1` [Example 13, 2-(4-Chloro-3-fluorophenoxy)-N-[(4S)-1-[5-(4-chlorophenyl)-1,3,4-oxadiazol-2-yl]azepan-4-yl]acetamide], for which, for the setting “Homo sapiens, HEK293, 6 h”, the IC50 fell in the range of 500 to 2000 nM.

Consider `O=C(COc1ccc(Cl)c(F)c1)N[C@H]1[C@@H]2CN(c3nnc(-c4ccc(Cl)cc4)o3)C[C@@H]21` [Example 7, 2-(4-Chloro-3-fluorophenoxy)-N-[(1R,5S,6R)-3-[5-(4-chlorophenyl)-1,3,4-oxadiazol-2-yl]-3-azabicyclo[3.1.0]hexan-6-yl]acetamide], for which the IC50 (Homo sapiens, HEK293, 6 h) was in the range of 500 to 2000 nM.

In the case of `O=C(COc1ccc(Cl)c(F)c1)NC1CCN(c2nnc(-c3ccc(Cl)cc3)o2)CC1` [Example 4, 2-(4-chloro-3-fluoro-phenoxy)-N-[1-[5-(4-chlorophenyl)-1,3,4-oxadiazol-2-yl]-4-piperidyl]acetamide], under “Homo sapiens, HEK293, 6 h”, the IC50 was in the range of 1 to 500 nM.

Regarding `O=C(COc1ccc(Cl)c(F)c1)N[C@@H]1CCN(c2nnc(-c3ccc(Cl)cc3)o2)C[C@H]1O` (stereo in doubt) [Example 3, 2-(4-chloro-3-fluorophenoxy)-N-[(3R*,4R*)-1-[5-(4-chlorophenyl)-1,3,4-oxadiazol-2-yl]-3-hydroxypiperidin-4-yl]acetamide], the IC50 is 1 to 500 nM.

Broadly, the IC50 is the concentration that inhibits the measured activity by half.

The values are drawn from patent US12715865B2, “Modulators of the integrated stress response pathway” (EVOTEC INTERNATIONAL GMBH, priority 2020, dated 2026).
